Measured values taken from patent US20150190416A1, “FILAGGRIN PRODUCTION PROMOTER, THERAPEUTIC AGENT FOR DISEASES ASSOCIATED WITH REDUCTION IN PRODUCTION OF FILAGGRIN, AND METHOD FOR SCREENING FOR SAID THERAPEUTIC AGENT” (KYOTO UNIVERSITY, priority 2012, published 2015).

What was measured:
GPR142 [1] = assay: FLG mRNA and GPR142 mRNA in GPR142-overexpressing NHEK cells (Example 7); format: cell-based, human; conditions: 10 nM, 1 day
Experimental: In this example, the FLG mRNA expression-inducing effect of Compound 1 in GPR142-overexpressing NHEK cells was confirmed.
(§1) 1) 5×10^4 cells/well of NHEK cells (Invitrogen) were plated on a 24-well plate. Then, a culture medium containing a medium for proliferating normal human epidermal keratinocytes (HuMedia-KG2, KURABO INDUSTRIES LTD.) supplemented with hEGF (0.1 ng/ml), insulin (10 μg/ml), hydrocortisone (0.5 μg/ml), gentamycin (50 μg/ml), amphotericin B (50 ng/ml), and bovine brain pituitary extract (BPE) (0.4%, v/v) was added to the plate, and the cells were cultured under the conditions of 37° C. and 5% CO2.
2) A GPR142pCXN mammalian expression vector was prepared by incorporating a human GPR142 gene coding region containing the base sequence set forth in SEQ ID NO: 2 into the EcoRI restriction site of the cloning site in a mammalian expression vector pCXN (Gene 108: 193-199 (1991)). […]
5) An extraction reagent (TRIzol™, Invitrogen) was used, and according to the manufacturer's protocol, total RNA was extracted from each of cells treated with the medicament. […] Real-time PCR was conducted by using the same primers as those for GPR142, FLG, and GAPDH used in Example 4 and SYBR™ PremixEx Taq (Takara) with a CFX96 real-time PCR instrument according to the manufacturer's protocol, and the amounts of GPR142 mRNA and FLG mRNA were measured. […]

GPR142 [2] = assay: Blocking effect by GPR142 RNAi in NHEK cells (Examples 5 and 6); format: cell-based, human; conditions: 1 day; for induction of FLG mRNA expression: dependence on GPR142: GPR142 siRNA, compound 10 nM
Experimental: In this example, it was confirmed that the expression-inducing effects of Compound 1 on GPR142 mRNA and FLG mRNA in NHEK cells were blocked by GPR142 RNAi.
as §1, with “Then, 500 μl of” for “Then,”, “were” for “was”
2) After culture under the conditions of the step 1) for 1 day, the medium was exchanged for the culture medium of the step 1) to which CaCl2 (1.2 mM in terms of Ca) was further added as Ca, and culture was conducted under the conditions of 37° C. and 5% CO2. After culture for 1 day, the medium was exchanged for the same culture medium containing Ca, and culture was further conducted for 1 day.
3) The NHEK cells of the step 2) were transfected with 50 nM of siRNA per well of the 24-well plate by using a transfection reagent, Lipofectamine RNA Max (Invitrogen) according to the manufacturer's protocol.
The sequences of the used three kinds of GPR142 siRNAs and the sequences of the used control siRNAs (all the siRNAs are manufactured by Invitrogen) are described below.
4) After culture for 1 day after the transfection with siRNA in the step 3), the medium was exchanged for the culture medium of the step 1) to which a DMSO solution of Compound 1 was added at 10 nM per well, and culture was further conducted for 1 day. As a control, a solvent only (vehicle) was added.
5) An extraction reagent (TRIzol™, Invitrogen) was used, and according to the manufacturer's protocol, total RNA was extracted from each of cells treated with the medicament. A reverse transcriptase reagent (Prime Script™, Takara) was used, and according to the manufacturer's protocol, cDNA was prepared from the total RNA. Next, real-time PCR was conducted by using the following primers and SYBR™ Premix Ex Taq (Takara) with a CFX96 real-time PCR instrument according to the manufacturer's protocol, and the amounts of GPR142 mRNA and FLG mRNA expression were measured. The result of measurement is shown as a GAPDH ratio.
In this example, it was confirmed that the expression-inducing effects of Compound 2 or 3 on GPR142 mRNA and FLG mRNA in NHEK cells were blocked by GPR142 RNAi.
NHEK cells were transfected in the same manner as in Example 5 except that, in the steps 1) to 3) of Example 5, two kinds of GPR142 siRNAs and two kinds of control siRNAs, i.e., GPR142-1 (#HSS139493) and GPR142-3 (#HSS179846) and Control-1 (LOW GC, #129350-200), and Control-3 (HIGH GC, #129350-400) were used as GPR142 siRNAs and control siRNAs, respectively. After culture for 1 day after the transfection was conducted in the same manner as in the step 4) of Example 5, the medium was exchanged for the culture medium to which each of a DMSO solution of Compound 1, a DMSO solution of Compound 2, or a methanol solution of Compound 3 was added at 10 nM per well, and culture was further conducted for 1 day. As a control, a solvent only (vehicle) was added. Regarding each of cells treated with the medicament, real-time PCR was conducted to measure the amounts of GPR142 mRNA and FLG mRNA in the same manner as in the step 5) of Example 5. The results of the measurement are shown as a GAPDH ratio.

[3] = calcium priming, siRNA 50 nM, Compound 1 10 nM

SMILES | FLG mRNA expression (GAPDH ratio) (GPR142 [1]; GPR142-overexpressing NHEK cells) | expression amount of GPR142 mRNA, increase as compared to the control (GPR142 [1]; NHEK cells) | induction of FLG mRNA expression: dependence on GPR142 (GPR142 [2]) | FLG mRNA expression in the presence of GPR142 siRNA (GPR142 [2]; [3]) | GPR142 mRNA expression in the presence of GPR142 siRNA (GPR142 [2]; [3])
CCc1ccc(OCc2ccccc2C(=O)Nc2ccc3nc(C)cc(N)c3c2)cc1.Cl [Compound 1, N-(4-Amino-2-methyl-6-quinolyl)-2-[(4-ethylphenoxy)methyl]benzamide hydrochloride] | increased FLG mRNA expression | about 2.2 times | mediated by GPR142 | suppressed by GPR142 siRNA | suppressed by GPR142 siRNA
CC[C@H](C)[C@H]1O[C@]2(CC[C@@H]1C)C[C@@H]1C[C@@H](C/C=C(\C)[C@@H](O[C@H]3C[C@H](OC)[C@@H](O[C@H]4C[C@H](OC)[C@@H](O)[C@H](C)O4)[C@H](C)O3)[C@@H](C)/C=C/C=C3\CO[C@@H]4[C@H](O)C(C)=C[C@@H](C(=O)O1)[C@]34O)O2 [Compound 2, Ivermectin, reference compound] | – | – | mediated by GPR142 | – | –
